Consider 1 substance from US8372955B2, “Purified antibody to the extracellular domain of NKp44L” (Assistance Publique Hopitaux de Paris, priority 2003, dated 2013).

Data set [1] deals with purified CD4+ T cells. Format: cell-based, human. The note with it: 6-mers peptide, preliminary experiment.
Data set [2] deals with purified CD4+ T cells. Nature of the data set: NK lysis sensitivity of treated CD4+ T cells, 4-h 51Cr-release assay with activated autologous purified NK cells. Format: cell-based, human. The settings on record: 6-mers peptide, preliminary experiment. The method, then:
NK lines were generated from PBMC, and then purified using the StemSep cell separation system and the NK cell enrichment antibody cocktail (StemCell technologies). NK purified cells were cultured in MyeloCult H5100 medium (StemCell technologies) supplemented with 100 units rhIL-2 (Boheringer). The purity of these preparations was evaluated by flow cytometry after staining with anti-CD3 (BD), anti-CD56 (BD), anti-NKp44, and anti-NKp46 mAbs.
The cytololytic activity was assayed in 4-h ^51Cr-release assay as previously described. Briefly, the target cells were labeled for 2-h at 37° C. with 100 μCi per 10^6 cells Na^51Cr (Amersham), and washed twice with culture medium. The target cells were then distributed in round-bottomed 96-well microtiter plates (4×10^3 cells per well), and the effector cells were added at several E/T ratio. The plates were incubated 4-h at 37° C. The supernatant were then collected and ^51Cr-release was measured in a gamma counted. In experiments in which Abs were included, these were added to final concentration of 20 μg/ml. The relative specific ^51Cr-release was calculated as previously described. Values for spontaneous ^51Cr-release, which are deducted in the calculation, were between 10 and 20% of the total incorporated radioactivity. The results are presented after subtraction of the nonspecific lysis obtained with control targets. […]

With “H-SWSNKS-OH [NH2-SWSNKS—COOH, NH2-SWSNKS—COOH (SEQ ID NO: 7)]”, the “Cell surface expression of NKp44L” value in the data set on purified CD4+ T cells [1] is recorded as “any increased”. Moreover, the NK cytotoxic activity result in the data set with purified CD4+ T cells [2] was “any increased”.
